# Data: PMC5773577, “Novel Miniature Membrane Active Lipopeptidomimetics against Planktonic and Biofilm Embedded Methicillin-Resistant Staphylococcus aureus” (Scientific Reports, 2018)
# Residues, ends and D or L forms follow the SMILES beside them. No end group written: not given here.
# How the values were obtained:
# [1] = tested on: MRSA ATCC 33591; experiment: Membrane permeabilization assay, calcein-AM dye release, flow cytometry; type: cell-based, Staphylococcus aureus; settings: PBS, 37 °C, mean ± S.D., two days
# Description: To assess the effect of designed peptidomimetics on membrane integrity of MRSA ATCC 33591 strain a calcein-AM dye release experiment was performed using the protocol described previously with slight modifications. Briefly, exponential phase MRSA ATCC 33591 culture was prepared in MHB medium as mentioned earlier and adjusted to OD600 = 1 (~10^9 CFU/mL) in PBS (10 mM sodium phosphate, 150 mM NaCl, pH 7.4). Thereafter, the cells were incubated at 37 °C with calcein-AM (2 μg/mL) in 10% MHB medium for 2 h. The calcein-loaded cells were washed once and re-suspended in PBS to OD600 = 0.5 (~10^8 CFU/mL). […] Subsequently, calcein fluorescence was measured via flow cytometry (Becton Dickinson (BD) FACS verse, San Jose, CA) with excitation and emission wavelengths of 488 nm and 530 ± 30 nm, respectively. For each sample, 10,000 cells were acquired. As a positive control, melittin (10 μM) was assayed under identical conditions. The experiment was repeated on two different days and mean ± S.D. is presented here. Corresponding to leakage a viability assay at 4 × MIC of respective test agents was also performed by incubating samples for 2 h at 37 °C and plating the diluted aliquots on BHI agar plates.
# [2] = tested on: MRSA (ATCC 33591); experiment: microbe, parasite or virus in culture; type: cell-based, Staphylococcus aureus; settings: MHB, 2–5 × 10^5 CFU/mL, 16–18 h, 37 °C, OD600
# Description: (§1) The antibacterial activity was evaluated as MIC using slight modifications to a serial broth micro dilution method as reported previously[66],[67]. Briefly, to each treatment well of the 96-well plate (Corning Incorporated, USA) 10 μL of peptidomimetic/antibiotic was added and subsequently diluted serial 2-fold in 0.2% BSA (in 0.01% acetic acid). Then to each well of the first 11 columns 100 μL of mid-log phase bacterial suspension in MHB medium was added to get 2–5 × 10^5 CFU/mL. Cultures without test peptidomimetics/antibiotics were used as growth control. Uninoculated MHB medium was used as negative control. The microtitre plates were incubated overnight with agitation (180 rpm) at 37 °C. After 16–18 h incubation, absorbance was read at 600 nm using an ELISA plate reader (Molecular Devices, Sunnyvale, CA, USA). The experiments were carried out in duplicate on at least three different days.
# [3] = tested on: MRSA ATCC 33591; experiment: Membrane depolarization assay, DiSC3(5); type: cell-based, Staphylococcus aureus; settings: 2 min, DiSC3(5), HEPES-glucose buffer pH 7.2, 37 °C, mean ± S.D., two days
# Description: The cytoplasmic membrane depolarization in MRSA ATCC 33591 strain was measured using membrane potential sensitive dye 3,3′-dipropylthiacarbocyanine iodide (DiSC3(5)) with a protocol described previously with slight modifications[23],[48]. Briefly, exponential phase cells grown in MHB were harvested by centrifugation, washed and re-suspended in respiration buffer (5 mM HEPES, 20 mM glucose, pH 7.2) to 2.5 × 10^6 CFU/mL. The cells were divided into 1 mL aliquots and incubated with 3.6 μM of DiSC3(5) (in dark) for 30 min to get steady baseline fluorescence intensity. The dye-loaded cells (800 μL) were then treated with peptidomimetics at respective 1× and 4× MIC concentrations (2–20 μL) and consequent fluorescence increase after 2 min of addition was measured in a Shimadzu RF-5301 PC spectrofluorimeter. As controls IL, melittin and VAN were also assayed under identical conditions. The samples were excited at 622 nm and emission was recorded between 650–700 nm with 3 nm slit width for both excitation and emission. The temperature was maintained at 37 °C throughout the experiment. Depolarization kinetics was measured at 4 × MIC of test agents for 5 min. The experiment was repeated on two different days and for Fig. 3 panel (A) mean ± S.D. data for % depolarization relative to melittin control (10 μM) set as 100% is presented here. For panel (B) representative data is shown here. The viability of dye-loaded cells corresponding to depolarization experiment at 4 × MIC concentration was also measured by plating the diluted aliquots onto BHI agar plates.
# [4] = tested on: MRSA ATCC 33591; experiment: Cell viability corresponding to calcein leakage experiment; type: cell-based, Staphylococcus aureus; settings: calcein-loaded cells in PBS, 4 × MIC (melittin 10 μM), 2 h incubation
# Description: To assess the effect of designed peptidomimetics on membrane integrity of MRSA ATCC 33591 strain a calcein-AM dye release experiment was performed using the protocol described previously with slight modifications[51]. Briefly, exponential phase MRSA ATCC 33591 culture was prepared in MHB medium as mentioned earlier and adjusted to OD600 = 1 (~10^9 CFU/mL) in PBS (10 mM sodium phosphate, 150 mM NaCl, pH 7.4). Thereafter, the cells were incubated at 37 °C with calcein-AM (2 μg/mL) in 10% MHB medium for 2 h. The calcein-loaded cells were washed once and re-suspended in PBS to OD600 = 0.5 (~10^8 CFU/mL). The cells were diluted 100× in PBS to get 3–5 × 10^5 CFU/mL and were incubated with different concentrations of test agents at 37 °C in dark for 2 h. Subsequently, calcein fluorescence was measured via flow cytometry (Becton Dickinson (BD) FACS verse, San Jose, CA) with excitation and emission wavelengths of 488 nm and 530 ± 30 nm, respectively. For each sample, 10,000 cells were acquired. As a positive control, melittin (10 μM) was assayed under identical conditions. The experiment was repeated on two different days and mean ± S.D. is presented here. […]
# agar plates. The plates were incubated at 37 °C for 16-18 h and colonies were counted. […]
# [5] = tested on: S. aureus (ISP479R); type: cell-based, Staphylococcus aureus; settings: MHB, 2–5 × 10^5 CFU/mL, 16–18 h, 37 °C, OD600
# Description: as §1
# [6] = tested on: E. faecium (E-7846), clinical isolate of vancomycin-resistant E. faecium; experiment: organism not typed; type: cell-based, Enterococcus faecium; settings: VRE clinical isolate E-7846; MHB, 2–5 × 10^5 CFU/mL, 16–18 h, 37 °C
# Description: as §1
# [7] = tested on: E. faecium (E-447), clinical isolate of vancomycin-resistant E. faecium; experiment: organism not typed; type: cell-based, Enterococcus faecium; settings: VRE clinical isolate E-447; MHB, 2–5 × 10^5 CFU/mL, 16–18 h, 37 °C
# Description: as §1
# [8] = tested on: MRSA ATCC 33591; experiment: microbe, parasite or virus in culture; type: cell-based, Staphylococcus aureus
# Description: An initial inoculum of mid-log phase 10^7 CFU/mL was used and MIC experiment was performed as described earlier. For serum/plasma stability assay a method as described previously was used with slight modifications. Briefly, 50 μL MHB medium containing desired concentration of test peptidomimetics was incubated with 50 µL mice plasma/fetal bovine serum for 3 h at 37 °C. After incubation, a 10 μL aliquot was taken out for MIC determination as described above. For the experiment, mid-log phase 2–5 × 10^5 CFU/mL were used as initial inoculum. For the growth control wells, an equivalent amount of plasma/FBS in the medium was also added to evaluate their effect on the viability of cells. A slight decrease in OD600 of cells incubated with mice plasma was observed compared to untreated growth control in MHB alone. The experiments were repeated on two different days and reproducible MIC values were observed.
# [9] = tested on: S. aureus (ISP479C); experiment: microbe, parasite or virus in culture; type: cell-based, Staphylococcus aureus; settings: MHB, 2–5 × 10^5 CFU/mL, 16–18 h, 37 °C, OD600
# Description: as §1
# [10] = tested on: MRSA (ATCC 43300); experiment: microbe, parasite or virus in culture; type: cell-based, Staphylococcus aureus; settings: MHB, 2–5 × 10^5 CFU/mL, 16–18 h, 37 °C, OD600
# Description: as §1
# [11] = tested on: S. aureus (ATCC 29213); experiment: microbe, parasite or virus in culture; type: cell-based, Staphylococcus aureus; settings: MHB, 2–5 × 10^5 CFU/mL, 16–18 h, 37 °C, OD600, duplicate, at least three days
# Description: as §1
# [12] = tested on: Escherichia coli (ATCC 11775); type: cell-based
# Description: as §1
# [13] = tested on: 3T3 murine fibroblast cell line; experiment: Cytotoxicity, MTT assay; type: cell-based; settings: 3T3 fibroblasts, 2 h, DMEM with 10% FBS, mean ± S.D., triplicate on two days
# Description: For the active peptidomimetics cytotoxicity was measured against 3T3 murine fibroblast cell line using a previously defined MTT assay with slight modifications. Briefly, the cells were grown to over 75% confluence in DMEM supplemented with 10% FBS and antibiotics (1 × Anti-anti) at 37 °C in 5% CO2 atmosphere. The cells were transferred to a 24-well plate to a final count of ~8 × 10^4 cells/well. […] The plates were kept for 2 h at 37 °C in 5% CO2 incubator. After 2 h, the cells were washed once with 1 mL PBS. Then 1 mL MTT (0.1 mg/mL) was added to each well in dark and incubated for 2 h at 37 °C in 5% CO2. After 2 h, 200 μL of DMSO was added to the wells to dissolve the formazan crystals formed and the plates were kept for 5 min in the incubator at 37 °C. 100 μL of the suspension was transferred to a fresh 96-well plate and absorbance (Asample) was measured at 570 nm in an ELISA plate reader (Molecular Devices, Sunnyvale, CA, USA). The wells with DMSO treatment were set as untreated control (Auntreated control). The assay was done in triplicate on two different days. The % survival was calculated using the following equation:2 %survival=[Asample/Auntreatedcontrol]×100
# [14] = tested on: Methicillin-resistant S. epidermidis (ATCC 35984); experiment: microbe, parasite or virus in culture; type: cell-based, Staphylococcus epidermidis; settings: MRSE ATCC 35984; MHB, 2–5 × 10^5 CFU/mL, 16–18 h, 37 °C, OD600
# Description: as §1
# [15] = tested on: mouse red blood cells (RBCs); experiment: Hemolysis assay; type: cell-based; settings: mouse RBC, up to 250 μg/mL, 1 h, 37 °C, PBS pH 7.4; 0.1% Triton X-100 = 100%; data not shown
# Description: For the experiment, a previously defined procedure was used with slight modifications[67],[68]. Briefly, blood was withdrawn from mice on the day of the experiment. After washing red blood cells (RBC) twice with phosphate buffer saline (PBS: 35 mM sodium phosphate, 150 mM NaCl, pH 7.4), a 4% v/v suspension of RBC was prepared in the same buffer. In a 96-well plate, serial two-fold dilutions of desired concentrations of peptidomimetics (in PBS) were prepared (100 μL) in duplicate. To each well 100 μL of 4% v/v RBC suspension was added. The plates were incubated at 37 °C for 1 h. After 1 h, the plates were centrifuged at 1500 rpm for 10 min and 20 μL of the supernatant was transferred to a fresh 96-well plate containing 80 μL PBS. The hemoglobin release was quantified by measuring OD414 in an ELISA plate reader (Molecular Devices, Sunnyvale, CA, USA). Hemoglobin release from 0.1% Triton X-100 treated RBC was set as 100% lysis (Amax) while as negative control RBC suspended in PBS alone was used (APBS). Percentage hemolysis was calculated using the following equation:1 %hemolysis=[(Asample−APBS)/(Amax−APBS)]×100
# [16] = tested on: S. aureus (ATCC 25923); experiment: microbe, parasite or virus in culture; type: cell-based, Staphylococcus aureus; settings: MHB, 2–5 × 10^5 CFU/mL, 16–18 h, 37 °C, OD600
# Description: as §1
compound,measurement,setting,value
"indolicidin (ILPWKWPWWPWRR; ends and bridges not checked; UniProt P33046 131-143, looked up) [naturally occurring Trp-Arg rich CAMP used as control]",% calcein leakage,"[1]; at 4 × MIC, 2 min incubation",42.2 ± 27.9%
same,% calcein leakage,"[1]; at 4 × MIC, 2 h incubation",50.6 ± 23.6%
same,% calcein leakage,"[1]; at MIC, 2 min incubation",6.2 ± 8.8%
same,% calcein leakage,"[1]; at MIC, 2 h incubation",2.7 ± 3.9%
same,"Minimum inhibitory concentration, MIC",[2],3.2 µg/mL
same,"% depolarization relative to melittin control (10 μM, set as 100%)",[3]; at 4 × MIC,87.4 ± 5.5%
same,"% depolarization relative to melittin control (10 μM, set as 100%)",[3]; at MIC,48.3 ± 6.3%
same,log reduction in viability,[4],1.8 log
"N=C(N)NCCC[C@H](NC(=O)[C@H](Cc1c[nH]c2ccccc12)NC(=O)CCCCCCCCCCCNC(=O)[C@H](Cc1c[nH]c2ccccc12)NC(=O)[C@@H](N)CCCNC(=N)N)C(N)=O [S-7, Arg-Trp-(12-ADO)-Trp-Arg-CONH2] (HELM PEPTIDE1{R.W.[O=C(CCCCCCCCCCCN[*:1])[*:2]].W.R.[am]}$$$$V2.0)","Minimum inhibitory concentration, MIC",[5],11.3 µg/mL
same,"Minimum inhibitory concentration, MIC",[6],5.6 µg/mL
same,"Minimum inhibitory concentration, MIC",[7],11.3 µg/mL
same,"Minimum inhibitory concentration, MIC","[8]; ATCC 33591, 3 h",22.7 µg/mL
same,"Minimum inhibitory concentration, MIC","[8]; MRSA ATCC 33591, after 3 h pre-incubation at 37 °C with mice plasma (50%, v/v), inoculum 2–5 × 10^5 CFU/mL, repeated on two days",>45.4 µg/mL
same,"Minimum inhibitory concentration, MIC","[8]; MRSA ATCC 33591, initial inoculum 10^7 CFU/mL, mid-log phase",11.3 µg/mL
same,"Minimum inhibitory concentration, MIC",[2],11.3 µg/mL
same,"Minimum inhibitory concentration, MIC",[9],11.3 µg/mL
same,"Minimum inhibitory concentration, MIC",[10],11.3 µg/mL
same,"Minimum inhibitory concentration, MIC",[11],11.3 µg/mL
same,MIC,[12],> 45.4 µg/mL
same,% viable cells relative to untreated control (MTT),[13]; 10× MIC,no decrease in cell viability
same,% viable cells relative to untreated control (MTT),[13]; 20 × MIC,no decrease in cell viability
same,"Minimum inhibitory concentration, MIC",[14],11.3 µg/mL
"N=C(N)NCCC[C@H](NC(=O)C(Cc1c(F)c(F)c(F)c(F)c1F)NC(=O)[C@H](CCCNC(=N)N)NC(=O)[C@@H](N)Cc1c[nH]c2ccccc12)C(=O)N[C@@H](Cc1c[nH]c2ccccc12)C(N)=O (stereo partly drawn) [S-4, Trp-Arg-(F5-Phe propionic acid)-Arg-Trp-CONH2] (HELM PEPTIDE1{W.R.[O=C(C(Cc1c(F)c(F)c(F)c(F)c1F)N[*:1])[*:2]].R.W.[am]}$$$$V2.0)","Minimum inhibitory concentration, MIC",[5],45.4 µg/mL
same,% hemolysis,[15],< 5%
same,"Minimum inhibitory concentration, MIC",[2],45.4 µg/mL
same,"Minimum inhibitory concentration, MIC",[9],45.4 µg/mL
same,"Minimum inhibitory concentration, MIC",[16],45.4 µg/mL
same,"Minimum inhibitory concentration, MIC",[11],45.4 µg/mL
